Earlier results in patent US7553863B2, “Ultrapure 4-methylpyrazole” (Paladin Labs (Barbados) Inc., priority 2005, dated 2009).

Assays:
[1] = H. Kohno et al., Cancer Sci. 2005
alcohol dehydrogenase = conditions: relative to 4-methylpyrazole; T. Li et al., Acta Chem. Scan. 1969
[2] = tested on: brain levels of noradrenaline; conditions: in contrast to 4-methylpyrazole; E. MacDonald, Acta Pharmacol. et Toxicol. 1976
[3] = Eisses, 1995

fold less potency against alcohol dehydrogenase (alcohol dehydrogenase)	SMILES	mutagenicity and carcinogenicity [1]	effect on brain levels of noradrenaline [2]	teratogenicity [3]
–	NN [Hydrazine]	known mutagens and carcinogens	–	–
10 fold	c1cn[nH]c1 [Pyrazole]	–	detrimental effect	known teratogen
